Test: Human HepG2 cell viability assay in 384 well format
Assay type: toxicity, cell-based
Design: dose 125 nL, time 70.5 hour; cytotoxicity at 70.5 h: concentration not given beside the values
Conditions: HepG2 cells, read-out: Inhibition

## CC(C)(C)CN1CCOC[C@H]1c1nc(-c2cccc(F)c2)c[nH]1
  cytotoxicity at 70.5 h: -6.97%

## O=C1CCCCN1c1cccc(CNC2CCCC2)c1
  cytotoxicity at 70.5 h: -17.9%

## COCCNC(=O)[C@@]12CCO[C@@H]1CCN(Cc1scnc1C)C2
  cytotoxicity at 70.5 h: -2.1%

## N#Cc1cc(F)ccc1Cn1cnc(C2CCC2)cc1=O
  cytotoxicity at 70.5 h: 1.8%

## N#Cc1cccc(Cl)c1NC1CCN(CC(N)=O)CC1
  cytotoxicity at 70.5 h: -106%

## Cc1cccn2c(=O)cc(OC(=O)c3ccccc3Cl)nc12
  cytotoxicity at 70.5 h: -10.1%

## NC(=O)[C@@H]1Cc2ccccc2CN1CCC(=O)N1CCOCC1
  cytotoxicity at 70.5 h: -5.31%

## COc1cc(CN2CC(=O)N(c3ccc(C)cc3)CC2C)cc(OC)c1 (stereo not drawn)
  cytotoxicity at 70.5 h: -12%

## Cc1ccc(C(=O)O)cc1S(=O)(=O)Nc1nn(-c2ccccc2)cc1C
  cytotoxicity at 70.5 h: -0.199%

## Cc1cc(C)c(S(=O)(=O)Nc2c(C)nc(N3CCCC3)nc2C)cc1C
  cytotoxicity at 70.5 h: 2.48%

## CS(=O)(=O)N1CC2(CCN(C(=O)c3ccncc3)CC2)c2ccccc21
  cytotoxicity at 70.5 h: -6.91%

## O=C(CO)N1CCN(C(=O)c2coc3ccccc23)CC1
  cytotoxicity at 70.5 h: -7.53%

## O=C(OCCNc1ncccn1)c1ccc(Br)s1
  cytotoxicity at 70.5 h: -0.709%

## COC[C@]1(O)CCN(c2cc(OC)ncn2)CC1(C)C
  cytotoxicity at 70.5 h: -11.7%

## O=C(c1ccno1)N1CCC2(CC1)C(=O)Nc1ccccc12
  cytotoxicity at 70.5 h: -6.37%

## Cc1cc(C(=O)N[C@H]2CC[C@@]3(CCC(=O)N3CC3CC3)CC2)no1
  cytotoxicity at 70.5 h: -15.5%

## O=C(CCC1CCN(C2CCSCC2)CC1)NCC1CCCO1 (stereo not drawn)
  cytotoxicity at 70.5 h: -12%

## CNc1cc2c(nn1)CCN(C(=O)c1cc(C)no1)C2
  cytotoxicity at 70.5 h: -7.41%

## NC(=O)c1ccc(NC(=O)N2CCN(c3cccs3)CC2)c(F)c1
  cytotoxicity at 70.5 h: -16.2%

## O=C(c1ccncc1)N(CCO)Cc1cc(Br)ccc1F
  cytotoxicity at 70.5 h: -10.4%

## Cc1sc(CS(C)(=O)=O)nc1-c1ccc(Cl)cc1
  cytotoxicity at 70.5 h: 14.3%

## CC(=O)N1CC[C@H]2NC(=O)N(Cc3ccccc3)C(=O)[C@H]21
  cytotoxicity at 70.5 h: -1.45%

## Cc1noc(C)c1CCC(=O)NCC1(O)CCN(c2ccccn2)C1 (stereo not drawn)
  cytotoxicity at 70.5 h: -6.52%

## O=c1cc(CN(CCO)C2CC2)nc2ccc(Cl)cn12
  cytotoxicity at 70.5 h: 14.2%

## CC1N(CC2CC2)C(=O)COC12CCN(C(=O)c1cnccn1)CC2 (stereo not drawn)
  cytotoxicity at 70.5 h: -5.19%

## CN(CCCO)c1nc(-c2ccc(C(N)=O)cc2)nc2c1CCNC2
  cytotoxicity at 70.5 h: -13.3%

## COCCOc1ccc(NC(=O)N(CCO)C2CC2)cn1
  cytotoxicity at 70.5 h: -10.9%

## Cc1noc(C)c1CN1CCn2cc(CN3CCOCC3)nc2C1
  cytotoxicity at 70.5 h: -0.251%

## NC(=O)Cn1cc(NC(=O)NCC2CCN(c3ccccc3)C2)cn1 (stereo not drawn)
  cytotoxicity at 70.5 h: -8.01%

## CCc1csc(C2CCCN(C(=O)c3c[nH]c(C)n3)C2)n1 (stereo not drawn)
  cytotoxicity at 70.5 h: -12%

## COC(=O)CCNC(=O)c1ccc(NC(=O)N(C)CC(C)C)cc1
  cytotoxicity at 70.5 h: 12.2%

## CCc1cn[nH]c1C1CCCN(C(=O)c2noc(C)c2COC)C1 (stereo not drawn)
  cytotoxicity at 70.5 h: -10.2%

## CCCc1ccc(S(=O)(=O)NC(=O)CCc2cscn2)cc1
  cytotoxicity at 70.5 h: 4.19%

## CCn1c(C)nnc1CN(C)C1CCN(CCOc2ccccc2)C1 (stereo not drawn)
  cytotoxicity at 70.5 h: 29.3%

## O=C(Nc1ccc(F)cc1)C1CNCCN1C(=O)CCO (stereo not drawn)
  cytotoxicity at 70.5 h: 8.54%

## O=c1cc(Cn2cncn2)nc2n1CCCN(CC1CC1)C2
  cytotoxicity at 70.5 h: -33%

## Fc1cc(CNCCn2cccn2)ccc1-n1cncn1
  cytotoxicity at 70.5 h: 1.79%

## CCCC(=O)NC(C(=O)OC)c1cc(F)ccc1F (stereo not drawn)
  cytotoxicity at 70.5 h: -3.96%

## CC(C)n1cnnc1CN(C)C(=O)c1cnn2ccccc12
  cytotoxicity at 70.5 h: 4.09%

## Cc1cccc2cc(CN3CCC(N4CCOCC4)CC3)c(=O)[nH]c12
  cytotoxicity at 70.5 h: -5.31%

## CC(C)c1nnc(CN2CCN(C(C)c3nc(C4CC4)no3)CC2)o1 (stereo not drawn)
  cytotoxicity at 70.5 h: -3.84%

## Cn1nccc1C(=O)N1Cc2cc(Cl)ccc2OC2(CCOCC2)C1
  cytotoxicity at 70.5 h: 2.41%

## CCn1nc(C)c(C(=O)N2C[C@@H](CN(C)CCOC)[C@@H](CO)C2)c1C
  cytotoxicity at 70.5 h: -6.72%

## Cc1ccc(O)c(C(=O)N2CCOCC2c2c(C)nn(C)c2C)c1 (stereo not drawn)
  cytotoxicity at 70.5 h: -2.1%

## CCn1cc2c(n1)C(COCC1CC1)CN(C(=O)c1ccsc1)C2 (stereo not drawn)
  cytotoxicity at 70.5 h: -10.1%

## c1ccc(-c2cnc3n2CCNC32CCNCC2)cc1
  cytotoxicity at 70.5 h: 43.5%

## CN(C)C(=O)CNS(=O)(=O)c1cc(Br)ccc1F
  cytotoxicity at 70.5 h: 2.64%

## Cc1nnn2c1COC(CNCc1nccs1)C2 (stereo not drawn)
  cytotoxicity at 70.5 h: 2.74%

## NS(=O)(=O)N1CCc2ccc(NC(=O)CCc3ccncc3)cc21
  cytotoxicity at 70.5 h: 22.2%

## Cc1ccc(NC(=O)NC(C)c2nc[nH]n2)cc1 (stereo not drawn)
  cytotoxicity at 70.5 h: -5.24%

## CCN(CC1CCOC1)C(=O)c1ccccc1S(=O)(=O)CC (stereo not drawn)
  cytotoxicity at 70.5 h: 10.2%

## CC(C)n1cc(CN(Cc2ccc(F)cc2)CC2CCCO2)cn1 (stereo not drawn)
  cytotoxicity at 70.5 h: 15.6%

## O=C(Cc1cccc(Cl)c1)Nc1cnccc1SCCCO
  cytotoxicity at 70.5 h: -6.16%

## CNC(=O)CCN(C)CC1(c2ccc(Br)cc2)CC1
  cytotoxicity at 70.5 h: -0.48%

## CC1CCCN(Cc2csc(-c3ncccn3)n2)CC1 (stereo not drawn)
  cytotoxicity at 70.5 h: 9.27%

## Cc1cc(C)n(C2CCCN(C(=O)c3cccc(F)c3F)C2)n1 (stereo not drawn)
  cytotoxicity at 70.5 h: 38.7%

## Cc1ccc(CN2CCc3ncnc(C4CC4)c3CC2)s1
  cytotoxicity at 70.5 h: 33.9%

## Cc1nn(C)cc1Cn1c(=O)c(C)nc2ccccc21
  cytotoxicity at 70.5 h: -6.18%

## CSCC[C@H](N)C(=O)N1CC(Oc2ccccc2C)C1
  cytotoxicity at 70.5 h: -3.44%

## CCC(CO)N(Cc1ccco1)C(=O)c1ccccc1SC (stereo not drawn)
  cytotoxicity at 70.5 h: 10.8%

## CCOCC1CN(C(=O)c2ccsc2)Cc2nn(C)cc21 (stereo not drawn)
  cytotoxicity at 70.5 h: -8.31%

## CC(C)N(C)C(=O)CN1CCCC(c2ccc(C(=O)O)cc2)C1 (stereo not drawn)
  cytotoxicity at 70.5 h: 32.3%

## O=C(NCC1CC1)[C@H]1CN(Cc2nccs2)C[C@H]2OCC[C@@H]12
  cytotoxicity at 70.5 h: -9.38%

## O=C(O)CCc1nc2nccc(-c3ccc(F)cc3)n2n1
  cytotoxicity at 70.5 h: 20.1%

## O=C(c1cccc(-n2cnnn2)c1)N1CCC2(CC1)OCCO2
  cytotoxicity at 70.5 h: -7.02%

## CC(C)c1nc(C(=O)N2CCc3ccccc3C2C(=O)O)cs1 (stereo not drawn)
  cytotoxicity at 70.5 h: -2.12%

## Cc1cccc(CN2CCC3(CC2)COC(COCC2CC2)C3)n1 (stereo not drawn)
  cytotoxicity at 70.5 h: -6.77%

## Fc1cnc(N2CCCC3(COCCN(c4nccs4)C3)C2)nc1 (stereo not drawn)
  cytotoxicity at 70.5 h: -12.2%

## CN1CCC(N(CCc2ccccc2)C(=O)c2ccc(C#N)cc2)CC1
  cytotoxicity at 70.5 h: -7.31%

## CC(=O)N1CCC1c1nc(-c2ccc(C)s2)no1 (stereo not drawn)
  cytotoxicity at 70.5 h: 23.5%

## N#Cc1ccc(NCC(=O)Nc2ccn(Cc3cccnc3)n2)cc1
  cytotoxicity at 70.5 h: -9.9%

## Cc1cc(N2CCN(C(=O)c3cc(Cl)c[nH]3)CC2)nc(N)n1
  cytotoxicity at 70.5 h: -6.18%

## Cn1ccnc1CN1CCN(CC(O)c2ccccc2)CC1 (stereo not drawn)
  cytotoxicity at 70.5 h: -12.2%

## CCc1nc(COc2ccc(N(C)C(C)=O)cc2)no1
  cytotoxicity at 70.5 h: 26%

## COc1ccc2c(c1)NC(C1CCN(C(=O)C3CC3)CC1)NS2(=O)=O (stereo not drawn)
  cytotoxicity at 70.5 h: -4.62%

## CS(=O)(=O)N1CCN(CC2CC2)c2ncccc2C1
  cytotoxicity at 70.5 h: -9.41%

## C[C@H]1C[C@@H]2CCN(Cc3ccccn3)C[C@H]2O1
  cytotoxicity at 70.5 h: -0.0314%

## CCOC(=O)N[C@H]1C[C@@H](C(=O)NCCc2cccc(Cl)c2)N(C)C1
  cytotoxicity at 70.5 h: -23.6%

## Fc1cccc(CCN(c2ccc3nnnn3n2)C2CC2)c1
  cytotoxicity at 70.5 h: -17.4%

## O=C(c1cc2c(s1)CCCCC2)N1CCC(c2ncc[nH]2)CC1
  cytotoxicity at 70.5 h: 1.98%

## Cc1cc(N2CCC(O)(CN(C)C(=O)CCN)CC2)c2cnccc2n1
  cytotoxicity at 70.5 h: -5.17%

## O=C(NCCCNC(=O)c1ccc(F)cc1F)c1cccc(O)c1
  cytotoxicity at 70.5 h: -1.34%

## Cc1cc(C)n(CC(C)NCCN2CCc3ccccc32)n1 (stereo not drawn)
  cytotoxicity at 70.5 h: -3.59%

From ChEMBL document CHEMBL3507680, “University of Dundee, Gates Library screen for HepG2 cell viability”
